# Biological target: T1, Serine/threonine-protein kinase Chk1 (Homo sapiens, UniProt O14757)
# T1 sequence (O14757 whole entry): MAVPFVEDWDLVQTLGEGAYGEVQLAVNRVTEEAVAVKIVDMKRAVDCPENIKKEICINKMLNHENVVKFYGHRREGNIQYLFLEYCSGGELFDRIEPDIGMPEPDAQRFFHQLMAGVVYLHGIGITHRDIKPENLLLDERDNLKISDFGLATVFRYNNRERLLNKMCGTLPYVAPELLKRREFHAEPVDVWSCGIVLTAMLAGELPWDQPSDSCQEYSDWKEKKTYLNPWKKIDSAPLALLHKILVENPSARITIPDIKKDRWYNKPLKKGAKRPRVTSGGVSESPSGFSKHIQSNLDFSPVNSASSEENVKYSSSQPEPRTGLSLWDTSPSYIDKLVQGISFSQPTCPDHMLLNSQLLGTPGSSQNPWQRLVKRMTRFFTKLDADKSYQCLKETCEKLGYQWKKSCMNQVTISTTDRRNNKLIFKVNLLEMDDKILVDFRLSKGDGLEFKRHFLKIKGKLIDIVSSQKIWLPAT
row,Ki,SMILES
1,3.16 nM,N#Cc1cnc(NC(=O)Nc2cc(Cl)ccc2OC2CCOC2)cn1 (configuration not stated)
2,7.94 nM,OCc1cccc2c1Cc1c(-c3ccc(-c4ccc(O)cc4)cc3)n[nH]c1-2
3,6.31 nM,Oc1ccc(-c2ccc(-c3n[nH]c4c3Cc3cc(O)ccc3-4)cc2)cc1
4,12.6 nM,COc1cc(-c2ccc3c(c2)Nc2ccc(CCOc4ccc(N5CCOCC5)cc4)cc2NC3=O)ccc1[N+](=O)[O-]
5,31600 nM,Clc1ncnc2[nH]cc(I)c12
6,5.01 nM,N#Cc1cnc(NC(=O)Nc2cc(Cl)ccc2OC2C[C@H](O)[C@@H](O)C2)cn1
7,15.8 nM,O=C1Nc2cc(CCOc3ccc(N4CCOCC4)cc3)ccc2Nc2cc(-c3ccc(O)cc3)ccc21
8,251 nM,COC(=O)Cc1ccc2c(c1)NC(=O)c1ccc(-c3ccc(S(N)(=O)=O)s3)cc1N2
9,7940 nM,C=CCN1C(=O)NC(=O)/C1=C/c1c[nH]c2ncccc12
10,6.31 nM,COc1cccc(-c2ccc3c(c2)Nc2cc(OCc4ccncc4)c(OC)cc2NC3=O)c1
11,501 nM,O=C1c2ccccc2S(=O)(=O)c2cc(-c3nnn[nH]3)ccc21 [DOXANTRAZOLE]

# Biological target: Urokinase-type plasminogen activator (Homo sapiens, UniProt P00749)
row,SMILES,Ki
1,NC1CCc2ccccc2C1 (configuration not stated),39800 nM
2,Nc1ccc2nc(N)ccc2c1,100000 nM
3,CC(C)Oc1cccc(NC(=O)c2ccc(OCC(=N)N)c(Br)c2)c1,7940 nM
4,C1=Nc2ccccc2CN1,50100 nM
5,Nc1ccc2ccc(C(=O)NCc3ccccc3)cc2n1,10000 nM
6,N#Cc1ccccc1COc1cccc2ccc(N)nc12,31600 nM
7,Nc1ccc2cc(NC(=O)CCc3ccccc3)ccc2n1,10000 nM
8,Nc1ccc2cc(NC(=O)c3ccccc3)ccc2n1,10000 nM
9,COc1cc(Nc2ncccn2)c2nc(N)ccc2c1,39800 nM
10,Nc1ccc2c(O)cccc2c1,50100 nM
11,Nc1ccc2cccc(NS(=O)(=O)c3ccc4ccccc4c3)c2n1,15800 nM
12,Nc1ccc2cccc(NC(=O)C3CC3)c2n1,10000 nM

# More lines, now with the values ahead:
row,Ki,SMILES
1,6310 nM,N=C(N)c1ccc2ccccc2c1
2,100 nM,N=C(N)c1ccc2cc(C(=O)Nc3ccccc3)cc(C3CCOC3)c2c1 (configuration not stated)
3,15.8 nM,N=C(N)c1ccc2cc(C(=O)Nc3ccc4c(c3)CCNC4)ccc2c1
4,1580 nM,N=C(N)c1ccc2cc(/C=C(\Cl)c3ccccc3)ccc2c1
5,3160 nM,N=C(N)c1ccc2cc(/C=C/CCc3cccnc3)cc(Br)c2c1
6,100 nM,C=CCN1CCc2cc(NC(=O)c3ccc4cc(C(=N)N)ccc4c3)ccc2C1
7,5010 nM,Nc1ccc2cc(NCCc3ccccc3)cc(Nc3ncccn3)c2n1
8,1260 nM,CN(C)Cc1ccc(/C=C/c2cc(Br)c3cc(C(=N)N)ccc3c2)o1
9,316 nM,N=C(N)NC(=O)c1nc(-c2ccoc2)c(NCCCc2ccccc2)nc1N
10,251 nM,N=C(N)c1ccc2cc(C(=O)Nc3ccc4c(c3)CCCN4)ccc2c1
11,158 nM,N=C(N)c1ccc2cccc(NC(=O)OCc3ccccc3)c2c1
12,3980 nM,Nc1ccc2cc(O)cc(Nc3ncccn3)c2n1
13,126 nM,Cc1ccc(CN2CCc3cc(NC(=O)c4ccc5cc(C(=N)N)ccc5c4)ccc3C2)cc1
14,1000 nM,N=C(N)c1ccc2cc(Nc3ncccn3)ccc2c1
15,6310 nM,N=C(N)c1ccc2cccc(C(=O)NO)c2c1
16,398 nM,N=C(N)c1ccc2cc(C(=O)Nc3ccc4c(c3)CCC4)ccc2c1
17,31.6 nM,N=C(N)c1ccc2cc(CCc3ccc(CN4CCCC4)cc3)cc(Nc3ncccn3)c2c1
18,3980 nM,N=C(N)NC(=O)c1cc(Br)ccc1N
19,1.58 nM,CC(C)C1=NCCc2ccc(NC(=O)c3cc(Nc4ncccn4)c4cc(C(=N)N)ccc4c3)cc21
20,251 nM,N=C(N)c1ccc2cc(CCc3ccc4c(c3)CCNC4)ccc2c1
21,5010 nM,C=COC(=O)Nc1cccc2ccc(N)nc12
22,251 nM,N=C(N)c1ccc2cc(C(=O)Nc3ccc4c(c3)OCO4)ccc2c1
23,5010 nM,Nc1ccc2cccc(NS(=O)(=O)c3cc(Br)c(Br)s3)c2n1
24,398 nM,CCC(C)/C=C/c1cc(C(=O)OC)cc2ccc(C(=N)N)cc12 (configuration not stated)
